Data reported in patent publication US5175168A, “Intermediates for 1,2-dideoxy-2-fluoronojirimycin” (Monsanto Company, priority 1991, dated 1992).

Tests used:
Type in all cases: biochemical
ALPHA MANNOSIDASE [1] = target: T1, ALPHA MANNOSIDASE (Canavalia ensiformis, UniProt C0HJB3); experiment: Alpha mannosidase inhibition, pH 7.4; conditions: for inhibition at 1000 µM: @ 1 mM; for inhibition at 5000 µM: @ 5 mM
T1 sequence (C0HJB3 1-562 limits assumed): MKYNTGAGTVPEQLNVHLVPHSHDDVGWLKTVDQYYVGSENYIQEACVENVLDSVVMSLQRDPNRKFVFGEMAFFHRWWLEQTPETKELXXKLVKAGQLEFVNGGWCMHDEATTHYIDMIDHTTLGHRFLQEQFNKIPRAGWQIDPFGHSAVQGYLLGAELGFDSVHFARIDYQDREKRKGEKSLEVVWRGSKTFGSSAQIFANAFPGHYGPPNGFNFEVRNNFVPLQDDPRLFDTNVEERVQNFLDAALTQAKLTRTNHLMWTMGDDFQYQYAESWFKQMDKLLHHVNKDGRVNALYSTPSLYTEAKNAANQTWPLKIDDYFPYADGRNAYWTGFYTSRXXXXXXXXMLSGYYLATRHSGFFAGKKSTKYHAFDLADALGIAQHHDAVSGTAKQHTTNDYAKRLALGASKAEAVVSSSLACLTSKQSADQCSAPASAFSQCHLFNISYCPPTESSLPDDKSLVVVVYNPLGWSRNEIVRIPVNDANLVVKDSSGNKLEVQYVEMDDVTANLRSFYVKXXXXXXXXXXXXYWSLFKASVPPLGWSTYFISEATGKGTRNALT
T1 sequence (C0HJB3 563-981 limits assumed): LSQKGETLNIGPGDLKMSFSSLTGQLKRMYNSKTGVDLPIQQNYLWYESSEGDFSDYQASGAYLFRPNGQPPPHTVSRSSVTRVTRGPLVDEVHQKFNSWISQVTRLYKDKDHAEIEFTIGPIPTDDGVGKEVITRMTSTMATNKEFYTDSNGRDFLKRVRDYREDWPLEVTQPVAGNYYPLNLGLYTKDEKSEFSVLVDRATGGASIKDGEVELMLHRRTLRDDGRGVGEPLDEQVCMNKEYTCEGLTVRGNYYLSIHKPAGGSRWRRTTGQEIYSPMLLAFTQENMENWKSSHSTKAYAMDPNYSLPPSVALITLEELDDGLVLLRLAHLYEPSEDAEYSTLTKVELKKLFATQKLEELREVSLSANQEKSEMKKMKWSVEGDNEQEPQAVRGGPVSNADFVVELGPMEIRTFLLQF

yeast α-glucosidase = target: T2, yeast α-glucosidase (Saccharomyces cerevisiae, UniProt P53341); experiment: α-Glucosidase Inhibition Assay, pH 7.4; conditions: read-out: ALPHA GLUCOSIDASE inhibition; for inhibition at 1000 µM: @ 1 mM; for inhibition at 5000 µM: @ 5 mM
T2 construct: purchased Sigma
Protocol: (§1) The glycosidase inhibition activity is determined by modifying an assay procedure described in Evans et al, Phytochemistry, 22, pp. 768-770 (1983). More particularly, yeast α-glucosidase and almond β-glucosidase activities were measured by the Evans et al method which was modified by assaying activities at pH 7.4 in N-2-hydroxyethylpiperazine-N-2-ethane sulfonic acid (HEPES) buffer, measuring in 96 well microtiter plates, and including 10% DMSO in control and test samples.
(§2) The release of p-nitrophenol from the substrate p-nitrophenylglycoside was measured spectrophotometrically in the presence and absence of test compound. Each assay included a known inhibitor of the enzyme as a standard. IC50 values were determined for compounds which inhibited the enzymes more than 50& at a 1 millimolar concentration.
To 100 ul 50 mM HEPES buffer, pH 7.4, in a microtiter plate, 20 ul test compound in DMSO (DMSO alone in control)and 40 ul (0.013 units) yeast α-glucosidase (Sigma) in HEPES buffer were added and pre-incubated at room temperature 15 minutes. 40 ul 1.25 mM p-nitro-phenyl-α-D-glucopyranoside (Sigma) in HEPES buffer, as substrate was added and the absorbance change at 405 nm was monitored in a Biotek EIA Autoreader. Absorption change was measured at 15 to 25 minutes (reaction was linear for at least 30 minutes). Each sample was tested in triplicate. IC50 values were determined from the linear portion of the log concentration vs percent inhibition curve obtained from a minimum of 3 points. Deoxynojirimycin was used as standard inhibitor.

almond β-glucosidase [2] = experiment: β-Glucosidase Inhibition Assay, pH 7.4
Protocol: as §1, §2
To 100 ul 50 mM HEPES buffer, pH 7.4, in a microtiter plate, 20 ul test compound in DMSO (DMSO alone in control) and 40 ul (0.136 units) β-glucosidase (Sigma) in HEPES buffer were added and pre-incubated at room temperature 15 minutes. 40 ul 1.25 mM p-nitrophenylβ-D-glucopyranoside in HEPES buffer was added as substrate and the absorbance change at 405 nm was monitored utilizing a Biotek EIA Autoreader. Absorption change was measured at 15 to 25 minutes (reaction is linear for at least 30 minutes). Each sample was tested in triplicate. IC50 values were determined from the linear portion of the log concentration vs percent inhibition curve obtained from a minimum of 3 points. Castanospermine was used as standard inhibitor.

ALPHA MANNOSIDASE [3] = target: T1, ALPHA MANNOSIDASE; experiment: Alpha mannosidase inhibition, pH 4.5; conditions: for inhibition at 1000 µM: @ 1 mM; for inhibition at 5000 µM: @ 5 mM
almond β-glucosidase [4] = experiment: β-Glucosidase Inhibition Assay, pH 4.8
Protocol: as §1, §2
To 100 ul 50 mM sodium citrate buffer, pH 4.8, in a microtiter plate, 20 ul test compound in DMSO (DMSO alone in control) and 20 ul (0.017 units) β-glucosidase (Sigma) in citrate buffer were added and pre-incubated at room temperature 15 minutes. 20 ul 2.50 mM p-nitrophenyl-β-D-glucopyranside in citrate buffer was added as substrate and incubated at room temperature 20 minutes (reaction is linear for at least 30 minutes). 50 ul 0.4 M NaOH was added and the absorption change at 405 nm was determined utilizing a Biotek EIA Autoreader. Each sample was tested in triplioate. IC50 values were determined from the linear portion of the log concentration vs percent inhibition curve obtained from a minimum of 3 points. Castanospermine was used as standard inhibitor.

T2 sequence (P53341 whole entry): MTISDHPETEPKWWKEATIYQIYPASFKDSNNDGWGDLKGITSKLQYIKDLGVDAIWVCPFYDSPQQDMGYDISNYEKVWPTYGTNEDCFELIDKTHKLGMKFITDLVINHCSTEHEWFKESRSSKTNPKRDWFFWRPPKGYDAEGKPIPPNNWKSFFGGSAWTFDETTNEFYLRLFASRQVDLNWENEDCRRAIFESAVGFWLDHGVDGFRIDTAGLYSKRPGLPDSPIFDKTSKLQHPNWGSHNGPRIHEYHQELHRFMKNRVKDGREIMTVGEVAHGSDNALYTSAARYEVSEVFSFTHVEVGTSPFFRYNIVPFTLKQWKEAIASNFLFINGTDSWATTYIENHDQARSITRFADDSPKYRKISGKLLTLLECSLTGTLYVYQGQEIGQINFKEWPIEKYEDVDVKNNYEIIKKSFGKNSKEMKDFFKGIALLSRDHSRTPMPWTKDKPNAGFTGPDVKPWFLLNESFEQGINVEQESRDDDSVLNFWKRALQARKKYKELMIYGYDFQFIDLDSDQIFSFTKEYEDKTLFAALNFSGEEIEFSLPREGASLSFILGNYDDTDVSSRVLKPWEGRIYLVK

Compound	inhibition at 1000 µM (ALPHA MANNOSIDASE [1]) [%]	inhibition at 5000 µM (ALPHA MANNOSIDASE [1]) [%]	inhibition at 1000 µM (yeast α-glucosidase) [%]	inhibition at 5000 µM (yeast α-glucosidase) [%]	BETA GLUCOSIDASE-pH 7.4 inhibition (almond β-glucosidase [2]; @ 1 mM) [%]	BETA GLUCOSIDASE-pH 7.4 inhibition (almond β-glucosidase [2]; @ 5 mM) [%]	inhibition at 1000 µM (ALPHA MANNOSIDASE [3]) [%]	inhibition at 5000 µM (ALPHA MANNOSIDASE [3]) [%]	BETA GLUCOSIDASE-pH 4.8 inhibition (almond β-glucosidase [4]; @ 1 mM) [%]	BETA GLUCOSIDASE-pH 4.8 inhibition (almond β-glucosidase [4]; @ 5 mM) [%]
OC[C@H]1NC[C@H](F)[C@@H](O)[C@@H]1O [Compound 1, 1,2-dideoxy-2-fluoronojirimycin]	19	11	24	64	11	25	4	5	6	25
CCCCN1C[C@H](F)[C@@H](O)[C@H](O)[C@H]1CO [Compound 2, N-butyl-1,2-dideoxy-2-fluoronojirimycin]	4	12	8	13	4	11	3	5	2	-6
